Test system: T1, voltage-gated Na+ (NaV) channel
T1 construct: native channels of pituitary GH3 cells, isoform not resolved
Experiment: whole-cell patch clamp of native late INa in GH3 cells
Assay type: cell-based

SMILES: CCC1=C[C@@H]2[C@H](C1)C[C@]2(CN)CC(=O)O [MGB, (1R,5S,6S)-6-(aminomethyl)-3-ethyl-bicyclo [3.2.0] hept-3-ene-6-acetic acid]
- IC50: 7.3 µM
